From ChEMBL document CHEMBL3044623, “Feeding cessation effects of chlorantraniliprole, a new anthranilic diamide insecticide, in comparison with several insecticides in distinct chemical classes and mode-of-action groups” (2009)

What was measured:
Trichoplusia ni [1] = assay: Antifeedant activity against third-instar larval stage of Trichoplusia ni (cabbage looper) infested compound-treated leaf assessed as reduction in feeding damage at 244 mg a.i/L after 48 hr by leaf disk assay relative to untreated control; type: functional; design: scale not given: the % may be the effect or the level left
Plutella xylostella [2] = assay: Antifeedant activity against third-instar larval stage of Plutella xylostella (diamondback moth) infested compound-treated leaf assessed as reduction in feeding damage at 244 mg a.i/L after 48 hr by leaf disk assay relative to untreated control; type: functional; design: scale not given: the % may be the effect or the level left
Plutella xylostella [3] = assay: Antifeedant activity against third-instar larval stage of Plutella xylostella (diamondback moth) infested compound-treated leaf assessed as time required to stop feeding at 244 mg a.i/L after 48 hr by leaf disk assay (reference value: > 2880 min); type: functional
Trichoplusia ni [4] = assay: Antifeedant activity against third-instar larval stage of Trichoplusia ni (cabbage looper) infested compound-treated leaf assessed as time required to stop feeding at 244 mg a.i/L after 48 hr by leaf disk assay (reference value: > 2880 min); type: functional
Spodoptera exigua [5] = assay: Antifeedant activity against third-instar larval stage of Spodoptera exigua infested compound-treated leaf assessed as time required to stop feeding at 244 mg a.i/L after 48 hr by leaf disk assay (reference value: > 2880 min); type: functional
Spodoptera exigua [6] = assay: Antifeedant activity against third-instar larval stage of Spodoptera exigua infested compound-treated leaf assessed as reduction in feeding damage at 244 mg a.i/L after 48 hr by leaf disk assay relative to untreated control; type: functional; design: scale not given: the % may be the effect or the level left
Helicoverpa zea [7] = assay: Antifeedant activity against third-instar larval stage of Helicoverpa zea (corn earworm) infested compound-treated leaf assessed as reduction in feeding damage at 244 mg a.i/L after 48 hr by leaf disk assay relative to untreated control; type: functional; design: scale not given: the % may be the effect or the level left
Helicoverpa zea [8] = assay: Antifeedant activity against third-instar larval stage of Helicoverpa zea (corn earworm) infested compound-treated leaf assessed as time required to stop feeding at 244 mg a.i/L after 48 hr by leaf disk assay (reference value: > 2880 min); type: functional
Trichoplusia ni [9] = assay: Antifeedant activity against third-instar larval stage of Trichoplusia ni (cabbage looper) infested compound-treated leaf assessed as reduction in feeding damage at 467 mg a.i/L after 48 hr by leaf disk assay relative to untreated control; type: functional; design: scale not given: the % may be the effect or the level left
Plutella xylostella [10] = assay: Antifeedant activity against third-instar larval stage of Plutella xylostella (diamondback moth) infested compound-treated leaf assessed as reduction in feeding damage at 467 mg a.i/L after 48 hr by leaf disk assay relative to untreated control; type: functional; design: scale not given: the % may be the effect or the level left
Plutella xylostella [11] = assay: Antifeedant activity against third-instar larval stage of Plutella xylostella (diamondback moth) infested compound-treated leaf assessed as time required to stop feeding at 467 mg a.i/L after 48 hr by leaf disk assay (reference value: > 2880 min); type: functional
Helicoverpa zea [12] = assay: Antifeedant activity against third-instar larval stage of Helicoverpa zea (corn earworm) infested compound-treated leaf assessed as reduction in feeding damage at 467 mg a.i/L after 48 hr by leaf disk assay relative to untreated control; type: functional; design: scale not given: the % may be the effect or the level left
Spodoptera exigua [13] = assay: Antifeedant activity against third-instar larval stage of Spodoptera exigua infested compound-treated leaf assessed as time required to stop feeding at 467 mg a.i/L after 48 hr by leaf disk assay (reference value: > 2880 min); type: functional
Spodoptera exigua [14] = assay: Antifeedant activity against third-instar larval stage of Spodoptera exigua infested compound-treated leaf assessed as reduction in feeding damage at 467 mg a.i/L after 48 hr by leaf disk assay relative to untreated control; type: functional; design: scale not given: the % may be the effect or the level left
Trichoplusia ni [15] = assay: Antifeedant activity against third-instar larval stage of Trichoplusia ni (cabbage looper) infested compound-treated leaf assessed as time required to stop feeding at 467 mg a.i/L after 48 hr by leaf disk assay (reference value: > 2880 min); type: functional
Helicoverpa zea [16] = assay: Antifeedant activity against third-instar larval stage of Helicoverpa zea (corn earworm) infested compound-treated leaf assessed as time required to stop feeding at 467 mg a.i/L after 48 hr by leaf disk assay (reference value: > 2880 min); type: functional
Plutella xylostella [17] = assay: Antifeedant activity against third-instar larval stage of Plutella xylostella (diamondback moth) infested compound-treated leaf assessed as reduction in feeding damage at 124 mg a.i/L after 48 hr by leaf disk assay relative to untreated control; type: functional; design: scale not given: the % may be the effect or the level left
Plutella xylostella [18] = assay: Antifeedant activity against third-instar larval stage of Plutella xylostella (diamondback moth) infested compound-treated leaf assessed as time required to stop feeding at 124 mg a.i/L after 48 hr by leaf disk assay (reference value: > 2880 min); type: functional
Trichoplusia ni [19] = assay: Antifeedant activity against third-instar larval stage of Trichoplusia ni (cabbage looper) infested compound-treated leaf assessed as time required to stop feeding at 124 mg a.i/L after 48 hr by leaf disk assay (reference value: > 2880 min); type: functional
Spodoptera exigua [20] = assay: Antifeedant activity against third-instar larval stage of Spodoptera exigua infested compound-treated leaf assessed as time required to stop feeding at 124 mg a.i/L after 48 hr by leaf disk assay (reference value: > 2880 min); type: functional
Spodoptera exigua [21] = assay: Antifeedant activity against third-instar larval stage of Spodoptera exigua infested compound-treated leaf assessed as reduction in feeding damage at 124 mg a.i/L after 48 hr by leaf disk assay relative to untreated control; type: functional; design: scale not given: the % may be the effect or the level left
Helicoverpa zea [22] = assay: Antifeedant activity against third-instar larval stage of Helicoverpa zea (corn earworm) infested compound-treated leaf assessed as reduction in feeding damage at 124 mg a.i/L after 48 hr by leaf disk assay relative to untreated control; type: functional; design: scale not given: the % may be the effect or the level left
Trichoplusia ni [23] = assay: Antifeedant activity against third-instar larval stage of Trichoplusia ni (cabbage looper) infested compound-treated leaf assessed as reduction in feeding damage at 124 mg a.i/L after 48 hr by leaf disk assay relative to untreated control; type: functional; design: scale not given: the % may be the effect or the level left
Helicoverpa zea [24] = assay: Antifeedant activity against third-instar larval stage of Helicoverpa zea (corn earworm) infested compound-treated leaf assessed as time required to stop feeding at 124 mg a.i/L after 48 hr by leaf disk assay (reference value: > 2880 min); type: functional
Plutella xylostella [25] = assay: Antifeedant activity against third-instar larval stage of Plutella xylostella (diamondback moth) infested compound-treated leaf assessed as reduction in feeding damage at 936 mg a.i/L after 48 hr by leaf disk assay relative to untreated control; type: functional, organism-based; design: scale not given: the % may be the effect or the level left
Plutella xylostella [26] = assay: Antifeedant activity against third-instar larval stage of Plutella xylostella (diamondback moth) infested compound-treated leaf assessed as time required to stop feeding at 936 mg a.i/L after 48 hr by leaf disk assay (reference value: > 2880 min); type: functional, organism-based
Trichoplusia ni [27] = assay: Antifeedant activity against third-instar larval stage of Trichoplusia ni (cabbage looper) infested compound-treated leaf assessed as reduction in feeding damage at 936 mg a.i/L after 48 hr by leaf disk assay relative to untreated control; type: functional, organism-based; design: scale not given: the % may be the effect or the level left
Helicoverpa zea [28] = assay: Antifeedant activity against third-instar larval stage of Helicoverpa zea (corn earworm) infested compound-treated leaf assessed as reduction in feeding damage at 936 mg a.i/L after 48 hr by leaf disk assay relative to untreated control; type: functional, organism-based; design: scale not given: the % may be the effect or the level left
Spodoptera exigua [29] = assay: Antifeedant activity against third-instar larval stage of Spodoptera exigua infested compound-treated leaf assessed as time required to stop feeding at 936 mg a.i/L after 48 hr by leaf disk assay (reference value: > 2880 min); type: functional, organism-based
Spodoptera exigua [30] = assay: Antifeedant activity against third-instar larval stage of Spodoptera exigua infested compound-treated leaf assessed as reduction in feeding damage at 936 mg a.i/L after 48 hr by leaf disk assay relative to untreated control; type: functional, organism-based; design: scale not given: the % may be the effect or the level left
Trichoplusia ni [31] = assay: Antifeedant activity against third-instar larval stage of Trichoplusia ni (cabbage looper) infested compound-treated leaf assessed as time required to stop feeding at 936 mg a.i/L after 48 hr by leaf disk assay (reference value: > 2880 min); type: functional, organism-based
Helicoverpa zea [32] = assay: Antifeedant activity against third-instar larval stage of Helicoverpa zea (corn earworm) infested compound-treated leaf assessed as time required to stop feeding at 936 mg a.i/L after 48 hr by leaf disk assay (reference value: > 2880 min); type: functional, organism-based

COC(=O)N(C(=O)N1CO[C@@]2(C(=O)OC)Cc3cc(Cl)ccc3C2=N1)c1ccc(OC(F)(F)F)cc1 [INDOXACARB]
Activity (Trichoplusia ni [1]): 94.8%
Activity (Plutella xylostella [2]): 96.6%
Time (Plutella xylostella [3]): 151.6 min
Time (Trichoplusia ni [4]): 83.6 min
Time (Spodoptera exigua [5]): 54.2 min
Activity (Spodoptera exigua [6]): 95.4%
Activity (Helicoverpa zea [7]): 93.4%
Time (Helicoverpa zea [8]): 77.2 min

COc1cccc(C(=O)NN(C(=O)c2cc(C)cc(C)c2)C(C)(C)C)c1C [METHOXYFENOZIDE]
Activity (Trichoplusia ni [9]): 81.6%
Activity (Plutella xylostella [10]): 96%
Time (Plutella xylostella [11]): 514.5 min
Activity (Helicoverpa zea [12]): 93.3%
Time (Spodoptera exigua [13]): 281.1 min
Activity (Spodoptera exigua [14]): 72.9%
Time (Trichoplusia ni [15]): 408.8 min
Time (Helicoverpa zea [16]): 471.8 min

CC1(C)[C@H](/C=C(\Cl)C(F)(F)F)[C@@H]1C(=O)O[C@@H](C#N)c1cccc(Oc2ccccc2)c1 [REL-LAMBDA CYHALOTHRIN]
Activity (Plutella xylostella [17]): 99.6%
Time (Plutella xylostella [18]): 8.1 min
Time (Trichoplusia ni [19]): 9.3 min
Time (Spodoptera exigua [20]): 5.4 min
Activity (Spodoptera exigua [21]): 99.5%
Activity (Helicoverpa zea [22]): 99.9%
Activity (Trichoplusia ni [23]): 99.9%
Time (Helicoverpa zea [24]): 7.3 min

METAFLUMIZONE
Activity (Plutella xylostella [25]): 89.6%
TIME (Plutella xylostella [26]): 6.04 h
Activity (Trichoplusia ni [27]): 87.6%
Activity (Helicoverpa zea [28]): 57.9%
TIME (Spodoptera exigua [29]): 7.96 h
Activity (Spodoptera exigua [30]): 47.4%
TIME (Trichoplusia ni [31]): 4.23 h
TIME (Helicoverpa zea [32]): 10.3 h
